The target of experiment [1] is T1, AHR (Homo sapiens, UniProt P35869).
T1 sequence (P35869 11-848): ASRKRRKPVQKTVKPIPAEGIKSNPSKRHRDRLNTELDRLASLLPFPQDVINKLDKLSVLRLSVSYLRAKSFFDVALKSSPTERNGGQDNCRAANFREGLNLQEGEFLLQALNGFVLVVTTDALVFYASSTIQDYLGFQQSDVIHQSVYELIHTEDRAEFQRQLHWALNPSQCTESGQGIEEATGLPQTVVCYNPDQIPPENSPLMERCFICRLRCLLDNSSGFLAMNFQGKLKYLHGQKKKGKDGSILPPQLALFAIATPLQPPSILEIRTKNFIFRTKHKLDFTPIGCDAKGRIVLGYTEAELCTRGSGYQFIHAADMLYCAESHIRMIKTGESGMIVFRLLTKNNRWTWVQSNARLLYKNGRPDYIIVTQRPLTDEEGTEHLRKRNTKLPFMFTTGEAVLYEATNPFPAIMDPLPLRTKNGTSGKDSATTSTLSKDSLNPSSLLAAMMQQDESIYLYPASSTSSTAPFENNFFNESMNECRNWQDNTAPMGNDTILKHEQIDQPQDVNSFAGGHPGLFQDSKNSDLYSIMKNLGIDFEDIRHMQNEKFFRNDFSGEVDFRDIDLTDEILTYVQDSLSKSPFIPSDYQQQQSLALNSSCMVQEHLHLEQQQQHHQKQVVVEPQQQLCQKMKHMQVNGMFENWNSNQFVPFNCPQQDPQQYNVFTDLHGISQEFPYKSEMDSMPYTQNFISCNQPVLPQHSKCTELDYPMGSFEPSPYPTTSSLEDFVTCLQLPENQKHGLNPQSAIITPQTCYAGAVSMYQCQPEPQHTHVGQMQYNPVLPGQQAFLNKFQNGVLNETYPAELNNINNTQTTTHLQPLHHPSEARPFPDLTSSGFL
The experiment can be described thus: In vitro assay 2: agonism in human cell line (transactivation assay).

For experiment [2], the target named is T1, AHR. The experiment can be described thus: In vitro assay 1: antagonism in human cell line (transactivation assay, kynurenic acid prestimulated). Particulars: Assay 1: AHR-luc Hum Antagonism IC50 [M], 150 μM kynurenic acid, 20 hours, firefly luciferase.
The mark [3] stands for this setting: Assay 2: AHR-luc Hum Agonism IC50 [M], no kynurenic acid, 20 hours, firefly luciferase.
The mark [4] stands for this setting: read-out: Assay 2: AHR-luc Hum Agonism IC50, no kynurenic acid, 20 hours, firefly luciferase.

The IC50 is the point on the concentration scale where inhibition reaches its midpoint. For `O=C(NCC(O)C(F)(F)F)c1cc(-c2ccc(Cl)cc2)nn(-c2ccccc2)c1=O` (single isomer, unassigned) [Example 77, 6-(4-chlorophenyl)-3-oxo-2-phenyl-N-(3,3,3-trifluoro-2-hydroxypropyl)-2,3-dihydropyridazine-4-carboxamide], the IC50 in experiment [1] (setting [3]) is above 2e-05 M; in experiment [2], 7.28e-08 M.
Take `O=C(NCC(O)C(F)(F)F)c1cc(-c2ccc(Cl)cc2)nn(-c2ccccc2)c1=O` (single isomer, unassigned) [Example 78, 6-(4-chlorophenyl)-3-oxo-2-phenyl-N-(3,3,3-trifluoro-2-hydroxypropyl)-2,3-dihydropyridazine-4-carboxamide]: the IC50 in experiment [1] (setting [4]) was above 2e-05 M; in experiment [2], 2.66e-07 M.
With `O=C(N[C@@H]1CCCC[C@@H]1O)c1cc(-c2ccc(Cl)cc2)nn(-c2cccc(F)c2)c1=O` (single isomer, unassigned) [Example 105, 6-(4-Chlorophenyl)-2-(3-fluorophenyl)-N-(cis-2-hydroxycyclohexyl)-3-oxo-2,3-dihydropyridazine-4-carboxamide], the IC50 is above 2e-05 M in experiment [1] (setting [4]) and 1.51e-07 M in experiment [2].
Take `COc1ccc(-c2cc(C(=O)N[C@@H]3CCCC[C@@H]3O)c(=O)n(-c3cccc(F)c3)n2)cc1` (single isomer, unassigned) [Example 108, 2-(3-Fluorophenyl)-N-(cis-2-hydroxycyclohexyl)-6-(4-methoxyphenyl)-3-oxo-2,3-dihydropyridazine-4-carboxamide]: the IC50 in experiment [1] (setting [4]) was above 2e-05 M; in experiment [2], 2.4e-07 M.
Take `O=C(N[C@H]1CCCC[C@@H]1O)c1cc(-c2ccc(Cl)cc2)nn(-c2cccc(F)c2)c1=O` (single isomer, unassigned) [Example 119, 6-(4-Chlorophenyl)-2-(3-fluorophenyl)-N-(trans-2-hydroxycyclohexyl)-3-oxo-2,3-dihydropyridazine-4-carboxamide]: the IC50 is above 2e-05 M in experiment [1] (setting [4]) and 4.51e-07 M in experiment [2].
Turning to `O=C(NCC(O)C(F)(F)F)c1cc(-c2ccc(OC(F)F)cc2)nn(-c2cccc(F)c2)c1=O` (single isomer, unassigned) [Example 121, 6-[4-(Difluoromethoxy)phenyl]-2-(3-fluorophenyl)-3-oxo-N-(3,3,3-trifluoro-2-hydroxypropyl)-2,3-dihydropyridazine-4-carboxamide], the figures for the IC50 in experiment [1] (setting [3]) and in experiment [2] were above 2e-05 M and 3.42e-08 M, respectively.
As to `O=C(NCC(O)C(F)(F)F)c1cc(-c2ccc(OC(F)F)cc2)nn(-c2cccc(F)c2)c1=O` (single isomer, unassigned) [Example 122, 6-[4-(Difluoromethoxy)phenyl]-2-(3-fluorophenyl)-3-oxo-N-(3,3,3-trifluoro-2-hydroxypropyl)-2,3-dihydropyridazine-4-carboxamide], the IC50 in experiment [1] (setting [4]) was above 2e-05 M; in experiment [2], 1.38e-07 M.
As to `O=C(N[C@H]1CCC[C@@H]1O)c1cc(-c2ccc(Cl)cc2)nn(-c2cccc(F)c2)c1=O` (single isomer, unassigned) [Example 125, 6-(4-Chlorophenyl)-2-(3-fluorophenyl)-N-(trans-2-hydroxycyclopentyl)-3-oxo-2,3-dihydropyridazine-4-carboxamide], the 50% inhibitory concentration (IC50) in experiment [1] (setting [4]) is above 2e-05 M; in experiment [2], 1.86e-07 M.
As to `O=C(N[C@H]1COC[C@@H]1O)c1cc(-c2ccc(Cl)cc2)nn(-c2cccc(F)c2)c1=O` (single isomer, unassigned) [Example 136, 6-(4-Chlorophenyl)-2-(3-fluorophenyl)-N-(trans-4-hydroxytetrahydrofuran-3-yl)-3-oxo-2,3-dihydropyridazine-4-carboxamide], the IC50 in experiment [1] (setting [4]) is above 2e-05 M; in experiment [2], 1.43e-07 M.
With `CC(O)C(C)NC(=O)c1cc(-c2ccc(OC(F)F)cc2)nn(-c2cccc(F)c2)c1=O` (single isomer, unassigned) [Example 141, 6-[4-(Difluoromethoxy)phenyl]-2-(3-fluorophenyl)-N-(3-hydroxybutan-2-yl)-3-oxo-2,3-dihydropyridazine-4-carboxamide], the IC50 in experiment [1] (setting [3]) was above 2e-05 M; in experiment [2], 7.81e-08 M.
As to `CC(O)C(C)NC(=O)c1cc(-c2ccc(OC(F)F)cc2)nn(-c2cccc(F)c2)c1=O` (single isomer, unassigned) [Example 142, 6-[4-(Difluoromethoxy)phenyl]-2-(3-fluorophenyl)-N-(3-hydroxybutan-2-yl)-3-oxo-2,3-dihydropyridazine-4-carboxamide], the IC50 in experiment [1] (setting [4]) was above 2e-05 M; in experiment [2] it was 9.15e-07 M.
For `O=C(NC(CO)C1CCOC1)c1cc(-c2ccc(OC(F)F)cc2)nn(-c2cccc(F)c2)c1=O` (single isomer, unassigned) [Example 146, 6-[4-(Difluoromethoxy)phenyl]-2-(3-fluorophenyl)-N-{(2-hydroxy-1-tetrahydrofuran-3-yl)ethyl}-3-oxo-2,3-dihydropyridazine-4-carboxamide] the same measures were above 2e-05 M and 2.94e-07 M.
As for `O=C(NC(CO)C1CCOC1)c1cc(-c2ccc(OC(F)F)cc2)nn(-c2cccc(F)c2)c1=O` (single isomer, unassigned) [Example 147, 6-[4-(Difluoromethoxy)phenyl]-2-(3-fluorophenyl)-N-{(2-hydroxy-1-tetrahydrofuran-3-yl)ethyl}-3-oxo-2,3-dihydropyridazine-4-carboxamide], the figures for the IC50 in experiment [1] (setting [4]) and in experiment [2] were above 2e-05 M and 4.66e-07 M, respectively.
As to `O=C(NC(CO)C1CCOC1)c1cc(-c2ccc(OC(F)F)cc2)nn(-c2cccc(F)c2)c1=O` (single isomer, unassigned) [Example 148, 6-[4-(Difluoromethoxy)phenyl]-2-(3-fluorophenyl)-N-{(2-hydroxy-1-tetrahydrofuran-3-yl)ethyl}-3-oxo-2,3-dihydropyridazine-4-carboxamide], the results for the IC50 in experiment [1] (setting [4]) and in experiment [2] were above 2e-05 M and 5.33e-07 M, respectively.
As to `O=C(NC(CO)C1CCOCC1)c1cc(-c2ccc(Cl)cc2)nn(-c2cccc(F)c2)c1=O` (single isomer, unassigned) [Example 150, 6-(4-Chlorophenyl)-2-(3-fluorophenyl)-N-[2-hydroxy-1-(tetrahydro-2H-pyran-4-yl)ethyl]-3-oxo-2,3-dihydropyridazine-4-carboxamide], the IC50 is above 2e-05 M in experiment [1] (setting [3]) and 2.35e-07 M in experiment [2].
Regarding `O=C(NC(CO)C1CCOCC1)c1cc(-c2ccc(Cl)cc2)nn(-c2cccc(F)c2)c1=O` (single isomer, unassigned) [Example 151, 6-(4-Chlorophenyl)-2-(3-fluorophenyl)-N-[2-hydroxy-1-(tetrahydro-2H-pyran-4-yl)ethyl]-3-oxo-2,3-dihydropyridazine-4-carboxamide], the values for the IC50 in experiment [1] (setting [4]) and in experiment [2] were above 2e-05 M and 1.24e-07 M, respectively.
For `O=C(NC(CO)C(F)(F)F)c1cc(-c2ccc(OC(F)(F)F)cc2)nn(-c2cccc(F)c2)c1=O` (single isomer, unassigned) [Example 171, 2-(3-Fluorophenyl)-3-oxo-N-(1,1,1-trifluoro-3-hydroxypropan-2-yl)-6-[4-(trifluoromethoxy)phenyl]-2,3-dihydropyridazine-4-carboxamide] the same measures were above 2e-05 M and 6.77e-07 M.
As to `CC(O)C(C)NC(=O)c1cc(-c2ccc(OC(F)(F)F)cc2)nn(-c2cccc(F)c2)c1=O` (single isomer, unassigned) [Example 180, 2-(3-Fluorophenyl)-N-(3-hydroxybutan-2-yl)-3-oxo-6-[4-(trifluoromethoxy)phenyl]-2,3-dihydropyridazine-4-carboxamide], the IC50 was above 2e-05 M in experiment [1] (setting [3]) and 1.24e-07 M in experiment [2].
With `CC(O)C(NC(=O)c1cc(-c2ccc(Cl)cc2)nn(-c2cccc(F)c2)c1=O)C(F)(F)F` (single isomer, unassigned) [Example 199, Isomer no. 2 of 6-(4-chlorophenyl)-2-(3-fluorophenyl)-3-oxo-N-(1,1,1-trifluoro-3-hydroxybutan-2-yl)-2,3-dihydropyridazine-4-carboxamide], the IC50 in experiment [1] (setting [4]) was above 2e-05 M; in experiment [2], 5.84e-07 M.
Regarding `CC(NC(=O)c1cc(-c2ccc(C(F)(F)F)cc2)nn(-c2cccc(F)c2)c1=O)C(O)C(F)(F)F` (single isomer, unassigned) [Example 269, Isomer no. 2 of 2-(3-fluorophenyl)-3-oxo-N-(4,4,4-trifluoro-3-hydroxybutan-2-yl)-6-[4-(trifluoromethyl)phenyl]-2,3-dihydropyridazine-4-carboxamide], the 50% inhibitory concentration (IC50) in experiment [1] (setting [3]) is 3.85e-09 M; in experiment [2], above 2e-05 M.
